Earlier results in patent publication US20040228911A1, “Vinorelbine compositions and methods of use” (NeoPharm, Inc., priority 2001, published 2004).
Counter-ions that a name gives are not always drawn.

Legend:
[1] = distilled water
[2] = tested on: axonal microtubules; settings: intact tectal plates from mouse embryos
[3] = tested on: mitotic microtubules; settings: intact tectal plates from mouse embryos

Row | SMILES | aqueous solubility [1] | concentration producing depolymerization of axonal microtubules [2] [µM] | concentration inhibiting mitotic microtubule formation, inducing a blockade of cells at metaphase [3] [µM]
1 | CCC1=C[C@@H]2CN(C1)Cc1c([nH]c3ccccc13)[C@@](C(=O)OC)(c1cc3c(cc1OC)N(C)[C@H]1[C@@](O)(C(=O)OC)[C@H](OC(C)=O)[C@]4(CC)C=CCN5CC[C@]31[C@@H]54)C2 [Vinorelbine tartrate, 3′,4′-didehydro-4′-deoxy-C-norvincaleukoblastine [R—(R,R)-2,3-dihydroxybutanedioate (1:2)(salt)]] | less than 1000 mg/mL |  | 
2 | CC[C@]1(O)C[C@@H]2CN(CCc3c([nH]c4ccccc34)[C@@](C(=O)OC)(c3cc4c(cc3OC)N(C)[C@H]3[C@@](O)(C(=O)OC)[C@H](OC(C)=O)[C@]5(CC)C=CCN6CC[C@]43[C@@H]65)C2)C1 [vinblastine] |  | 30 | 2
3 | CC[C@]1(O)C[C@H]2CN(CCc3c([nH]c4ccccc34)[C@@](C(=O)OC)(c3cc4c(cc3OC)N(C=O)[C@H]3[C@@](O)(C(=O)OC)[C@H](OC(C)=O)[C@]5(CC)C=CCN6CC[C@]43[C@@H]65)C2)C1 [vincristine] |  | 5 | 2
4 | CCC1=C[C@@H]2CN(C1)Cc1c([nH]c3ccccc13)[C@@](C(=O)OC)(c1cc3c(cc1OC)N(C)[C@H]1[C@@](O)(C(=O)OC)[C@H](OC(C)=O)[C@]4(CC)C=CCN5CC[C@]31[C@@H]54)C2 [vinorelbine, 3′,4′-didehydro-4′-deoxy-C-norvincaleukoblastine [R—(R,R)-2,3-dihydroxybutanedioate (1:2)(salt)]] |  | 40 | 2
